According to ChEMBL document CHEMBL1156854, “Design and synthesis of piperazine-indole p38 alpha MAP kinase inhibitors with improved pharmacokinetic profiles” (Bioorg Med Chem Lett, 2010):
Blank lines part the entries; values can stand above or below the compound they belong to.

Legend:
[1] = Clearance in po dosed dog; type: ADME, organism-based, Canis lupus familiaris; details: in vivo
[2] = Clearance in po dosed rat; type: ADME, organism-based; details: in vivo
[3] = system: Liver microsomes; assay: Metabolic stability in rat liver microsomes assessed as demethylated metabolite level; type: ADME, Microsome
[4] = AUC in po dosed rat; type: ADME, organism-based; details: plasma
[5] = Cmax in rat; type: ADME, organism-based; details: in vivo
[6] = Metabolic stability in monkey liver microsomes assessed as parent compound level; type: ADME, Macaca mulatta, Microsome; details: rhesus monkey
[7] = AUC in po dosed dog; type: ADME, organism-based, Canis lupus familiaris; details: plasma
[8] = Tmax in monkey; type: ADME, organism-based, Macaca mulatta; details: rhesus monkey, in vivo
[9] = AUC in iv dosed dog; type: ADME, organism-based, Canis lupus familiaris; details: plasma
[10] = Oral bioavailability in dog; type: ADME, organism-based, Canis lupus familiaris; details: in vivo
[11] = system: Liver microsomes; assay: Metabolic stability in rat liver microsomes assessed as parent compound level; type: ADME, Microsome
[12] = system: Canis familiaris; assay: Volume of distribution in po dosed dog; type: ADME, organism-based, Canis lupus familiaris; details: in vivo
[13] = Tmax in dog; type: ADME, organism-based, Canis lupus familiaris; details: in vivo
[14] = Cmax in monkey; type: ADME, organism-based, Macaca mulatta; details: rhesus monkey, in vivo
[15] = Oral bioavailability in rat; type: ADME, organism-based; details: in vivo
[16] = Metabolic stability in dog liver microsomes assessed as parent compound level; type: ADME, Canis lupus familiaris, Microsome
[17] = Cmax in dog; type: ADME, organism-based, Canis lupus familiaris; details: in vivo
[18] = system: Rattus norvegicus; assay: Volume of distribution in po dosed rat; type: ADME, organism-based; details: in vivo
[19] = AUC in iv dosed rat; type: ADME, organism-based; details: plasma
[20] = Tmax in rat; type: ADME, organism-based; details: in vivo
[21] = AUC in po dosed monkey; type: ADME, organism-based, Macaca mulatta; details: rhesus monkey, plasma
[22] = Metabolic stability in monkey liver microsomes assessed as demethylated metabolite level; type: ADME, Macaca mulatta, Microsome; details: rhesus monkey
[23] = system: Liver microsomes; assay: Metabolic stability in human liver microsomes assessed as parent compound level; type: ADME, Microsome
[24] = Oral bioavailability in monkey; type: ADME, organism-based, Macaca mulatta; details: rhesus monkey, in vivo

CL/F [1]: 3.33 mL/min/kg
CL/F [2]: 20 mL/min/kg
Stability [3]: 9.4%
AUC [4]: 1270 ng·h/mL
Cmax [5]: 367 ng/mL
Stability [6]: 71.4%
AUC [7]: 5610 ng·h/mL
Tmax [8]: 2 h
AUC [9]: 3430 ng·h/mL
bioavailability [10]: 33%
Stability [11]: 83.9%
Vd [12]: 6.5 L/kg
Tmax [13]: 1.3 h
Cmax [14]: 360 ng/mL
bioavailability [15]: 31%
Stability [16]: 91.7%
Cmax [17]: 899 ng/mL
Vd [18]: 2.7 L/kg
AUC [19]: 810 ng·h/mL
Tmax [20]: 1.2 h
AUC [21]: 1830 ng·h/mL
Stability [22]: 19.5%
Stability [23]: 90.8%
SMILES: C[C@@H]1CN(C(c2ccccc2)c2ccccc2)[C@@H](C)CN1C(=O)c1cc2c(C(=O)C(=O)N(C)C)cn(C)c2cc1Cl

Stability [3]: 3.2%
bioavailability [24]: 12%
Stability [6]: 51.2%
bioavailability [10]: 69%
Stability [11]: 65.8%
Stability [16]: 94.5%
Stability [22]: 11.9%
Stability [23]: 65.1%
SMILES: C[C@@H]1CN(Cc2ccc(F)cc2)[C@@H](C)CN1C(=O)c1cc2c(C(=O)C(=O)N(C)C)cn(C)c2cc1Cl [TALMAPIMOD]
